Results on one compound are retold here after patent US4808572A, “α-Hydroxy thioethers” (Ciba-Geigy Corporation, priority 1985, dated 1989).

pIC50: −log10 of the molar value.

Assay [1] deals with phospholipase A2 from human leucocytes. The assay can be described thus: In vitro inhibition of phospholipase A2 obtained from human leucocytes. It counts as biochemical. The conditions noted are these: enzyme from human neutrophilic polymorphonuclear leucocytes, 14C-oleic acid labelled E. coli phospholipids, 37°, 1 hour, pH 7.
Description: Human neutrophilic polymorphonuclear leucocytes are isolated from "buffy coats" by multistage fractional sedimentation and are deep-frozen. Phospholipase A2 is extracted from the cell suspension by homogenisation with the addition of ice-cold 0.36N H2 SO4 in 2N NaCl, and the supernatant obtained after centrifugation at 10,000×g is dialysed against sodium acetate buffer pH 4.5.
In order to determine the enzyme activity, enzyme (10-30 μg protein) is incubated at 37° for 1 hour in 0.1M tris/HCl buffer pH 7 with the addition of 1 mM CaCl2 and substrate consisting of phospholipids (2 μM) of Escherichia coli that have been radioactively labelled with ^14 C-oleic acid by means of biosynthesis. The reaction is stopped by the addition of Dole reagent (isopropanol/heptane/1N H2 SO4 40:10:1, v/v) and the ^14 C-oleic acid selectively released by phospholipase A2 is extracted. Substrate also extracted at the same time is completely removed by filtering the extract through a column of silica gel. The ^14 C-oleic acid in the eluate is determined by radiometry.
In order to ascertain the inhibitory action of test substances on phospholipase A2, these substances are added in the form of solutions in water, dimethyl sulphoxide (final concentration in the mixture up to 5% v/v) or ethanol (final concentration in the mixture up to 2.5% v/v) to the incubation mixture. […]
The target of assay [2] is phospholipase C from human thrombocytes. The assay can be described thus: In vitro inhibition of phospholipase C obtained from human thrombocytes. As to conditions: enzyme from human thrombocytes, phosphatidyl-[14C]-inositol, 37°, 5 minutes, pH 6. It counts as biochemical.
Description: Human thrombocytes are obtained from "buffy coats" by fractional centrifugation and then deep frozen.
To ascertain the enzyme activity, enzyme (20-100 μg protein) is incubated at 37° for 5 minutes in 0.025M tris/malate buffer pH 6 with the addition of 0.2 mM CaCl2 and 0.02 mM radioactively labelled substrate, phosphatidyl-[^14 C]-inositol. The reaction is stopped by extraction by shaking with CHCl3 /CH3 OH 2:1 (v/v). In the course of this operation unconsumed substrate is extracted into the organic phase, whilst the reaction product, ^14 C-inositol phosphate, remains in the aqueous phase and can be measured by radiometry of an aliquot.
In order to ascertain the inhibitory action of test substances on phospholipase C, these substances are added in the form of solutions in water, dimethyl sulphoxide (final concentration in the mixture up to 5%, v/v) or ethanol (final concentration in the mixture up to 2.5%, v/v) to the incubation mixture. The strength of action of the test substances is expressed by the IC50, that is to say the concentration that causes a 50% inhibition of the control activity. The IC50 is ascertained on a graph by plotting the percentage inhibition on the ordinate against the log of the concentration (μM) on the abscissa.

`CCN(CC)CCCC(C)Nc1c2ccc(Cl)cc2nc2ccc(OC)cc12` (centres unmarked) [mepacrine]: the pIC50 was 2.80 in assay [1] and 4.70 in assay [2].

A word on the pIC50: it is the IC50 on a negative log10 scale, so that one unit is a factor of ten. Read a high pIC50 as a low IC50.
